Measurements published in ChEMBL document CHEMBL5634121, “Discovery of novel G9a/GLP covalent inhibitors for the treatment of triple-negative breast cancer” (Eur J Med Chem, 2023).
pIC50: −log10 of the molar value. Active and inactive are the calls of the source. No cut-off for these calls is given here.

How the values were obtained:
[1] = Cytotoxicity against human L02 cells assessed as reduction in cell viability incubated for 2 days by MTT assay; assay type: toxicity, cell-based
[2] = biological target: T1, Histone-lysine N-methyltransferase EHMT2 (Homo sapiens) (UniProt Q96KQ7); test: Inhibition of G9a (unknown origin) at 1 uM by AlphaLISA immunodetection assay relative to control
T1 sequence (whole entry): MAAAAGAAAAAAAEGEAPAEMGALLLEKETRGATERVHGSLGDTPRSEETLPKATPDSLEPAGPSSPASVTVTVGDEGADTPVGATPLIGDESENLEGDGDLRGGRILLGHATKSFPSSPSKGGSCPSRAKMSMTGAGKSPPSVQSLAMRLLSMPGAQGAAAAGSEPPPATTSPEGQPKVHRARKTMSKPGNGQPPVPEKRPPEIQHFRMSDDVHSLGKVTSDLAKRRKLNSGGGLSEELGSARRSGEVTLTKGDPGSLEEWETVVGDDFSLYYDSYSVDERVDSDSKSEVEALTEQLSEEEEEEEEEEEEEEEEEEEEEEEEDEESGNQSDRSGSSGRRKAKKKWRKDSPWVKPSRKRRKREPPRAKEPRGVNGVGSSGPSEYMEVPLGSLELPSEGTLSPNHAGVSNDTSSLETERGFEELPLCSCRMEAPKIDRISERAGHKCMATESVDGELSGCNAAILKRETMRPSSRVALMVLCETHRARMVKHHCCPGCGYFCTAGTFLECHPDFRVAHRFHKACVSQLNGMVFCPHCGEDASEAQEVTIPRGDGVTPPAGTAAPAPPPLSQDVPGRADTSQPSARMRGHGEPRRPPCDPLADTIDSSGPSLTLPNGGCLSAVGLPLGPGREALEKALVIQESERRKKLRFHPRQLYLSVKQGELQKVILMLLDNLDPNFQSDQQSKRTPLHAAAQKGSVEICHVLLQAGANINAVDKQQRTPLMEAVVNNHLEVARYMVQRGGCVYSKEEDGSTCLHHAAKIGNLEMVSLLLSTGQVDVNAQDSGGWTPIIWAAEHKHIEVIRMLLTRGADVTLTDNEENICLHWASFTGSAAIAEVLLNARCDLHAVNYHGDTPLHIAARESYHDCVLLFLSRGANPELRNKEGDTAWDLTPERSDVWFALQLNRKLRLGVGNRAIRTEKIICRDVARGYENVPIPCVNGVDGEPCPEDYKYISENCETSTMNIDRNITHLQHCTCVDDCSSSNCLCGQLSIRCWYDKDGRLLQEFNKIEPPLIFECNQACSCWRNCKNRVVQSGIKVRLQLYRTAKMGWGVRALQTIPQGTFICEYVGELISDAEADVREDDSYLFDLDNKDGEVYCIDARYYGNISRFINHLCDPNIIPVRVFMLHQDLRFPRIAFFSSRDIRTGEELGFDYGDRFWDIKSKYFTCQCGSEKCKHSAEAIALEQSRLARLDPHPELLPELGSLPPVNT

4T1 = test: Antiproliferative activity against mouse 4T1 cells incubated for 3 to 5 days by MTT assay; assay type: functional, cell-based; settings: for pIC50: Mus musculus, 4T1, read-out: IC50
MDA-MB-231 [3] = test: Antiproliferative activity against human MDA-MB-231 cells incubated for 3 to 5 days by MTT assay; assay type: functional, cell-based
[4] = biological target: T1, Histone-lysine N-methyltransferase EHMT2 (Homo sapiens); test: Inhibition of G9a (unknown origin)
[5] = biological target: T2, Histone-lysine N-methyltransferase EHMT1 (Homo sapiens) (UniProt Q9H9B1); test: Inhibition of GLP (unknown origin) at 1 uM
T2 sequence (whole entry): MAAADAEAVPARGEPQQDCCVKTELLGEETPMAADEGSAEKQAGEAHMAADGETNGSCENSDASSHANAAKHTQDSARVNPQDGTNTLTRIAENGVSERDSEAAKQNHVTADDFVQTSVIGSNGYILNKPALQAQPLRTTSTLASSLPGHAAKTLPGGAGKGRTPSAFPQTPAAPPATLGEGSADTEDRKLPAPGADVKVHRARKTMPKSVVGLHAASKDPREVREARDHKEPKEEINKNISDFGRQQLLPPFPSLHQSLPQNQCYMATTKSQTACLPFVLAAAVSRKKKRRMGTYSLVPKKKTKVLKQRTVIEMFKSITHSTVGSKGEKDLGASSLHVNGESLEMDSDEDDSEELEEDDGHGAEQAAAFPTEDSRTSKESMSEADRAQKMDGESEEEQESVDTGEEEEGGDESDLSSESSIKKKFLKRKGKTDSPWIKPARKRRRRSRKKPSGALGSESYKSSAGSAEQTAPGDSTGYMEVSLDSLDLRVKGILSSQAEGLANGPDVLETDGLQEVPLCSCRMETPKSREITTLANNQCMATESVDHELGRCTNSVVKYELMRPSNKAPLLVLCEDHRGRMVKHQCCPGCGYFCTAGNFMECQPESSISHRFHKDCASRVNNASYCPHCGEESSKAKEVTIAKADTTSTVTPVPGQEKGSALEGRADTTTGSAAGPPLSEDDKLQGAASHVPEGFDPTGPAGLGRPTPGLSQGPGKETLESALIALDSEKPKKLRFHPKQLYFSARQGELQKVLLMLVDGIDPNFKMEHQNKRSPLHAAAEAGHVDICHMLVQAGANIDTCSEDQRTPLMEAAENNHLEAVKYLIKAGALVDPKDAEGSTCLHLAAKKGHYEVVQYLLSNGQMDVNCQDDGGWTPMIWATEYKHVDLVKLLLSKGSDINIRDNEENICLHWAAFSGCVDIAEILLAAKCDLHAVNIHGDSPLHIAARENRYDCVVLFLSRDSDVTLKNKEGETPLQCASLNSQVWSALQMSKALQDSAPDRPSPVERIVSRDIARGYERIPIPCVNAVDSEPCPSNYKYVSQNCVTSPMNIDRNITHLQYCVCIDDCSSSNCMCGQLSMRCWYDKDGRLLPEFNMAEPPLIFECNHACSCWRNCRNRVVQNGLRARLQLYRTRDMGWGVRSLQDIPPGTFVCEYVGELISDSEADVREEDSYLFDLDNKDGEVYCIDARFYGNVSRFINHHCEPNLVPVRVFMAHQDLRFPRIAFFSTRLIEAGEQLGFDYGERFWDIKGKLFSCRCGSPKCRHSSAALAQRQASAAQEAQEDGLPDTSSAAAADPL

MDA-MB-231 [6] = test: Antiproliferative activity against human MDA-MB-231 cells assessed as cell growth inhibition at 20 uM incubated for 1 day followed by compound washout and measured after 1 to 4 days; assay type: functional, cell-based
MDA-MB-231 [7] = test: Induction of apoptosis in human MDA-MB-231 cells assessed as viable cells at 20 uM incubated for 72 hrs by Annexin V and PI staining based flow cytometry analysis (reference value: 98.31 %); assay type: functional; settings: read-out: Activity
MDA-MB-231 [8] = test: Induction of apoptosis in human MDA-MB-231 cells assessed as necrotic cells at 20 uM incubated for 72 hrs by Annexin V and PI staining based flow cytometry analysis (reference value: 0.32 %); assay type: functional
MDA-MB-231 [9] = test: Induction of apoptosis in human MDA-MB-231 cells assessed as early apoptotic cells at 20 uM incubated for 72 hrs by Annexin V and PI staining based flow cytometry analysis (reference value: 0.92 %); assay type: functional
MDA-MB-231 [10] = test: Induction of apoptosis in human MDA-MB-231 cells assessed as late apoptotic cells at 20 uM incubated for 72 hrs by Annexin V and PI staining based flow cytometry analysis (reference value: 0.45 %); assay type: functional
[11] = biological target: T3, Histone-lysine N-methyltransferase EHMT1/EHMT2 (Homo sapiens) (UniProt Q9H9B1+Q96KQ7); test: Inhibition of G9a/GLP in human MDA-MB-231 cells assessed as reduction in H3K9 dimethylation at 20 uM incubated for 3 days by Western blotting analysis; assay type: cell-based; settings: time 3.0 day
MDA-MB-231 [12] = test: Inhibition of colony formation in human MDA-MB-231 cells at 1 to 10 uM refreshed every 4 days for 12 days by crystal violet staining based assay; assay type: functional, cell-based; settings: dose 1-10 µM, time 12.0 day
[13] = biological target: T3, Histone-lysine N-methyltransferase EHMT1/EHMT2 (Homo sapiens); test: Inhibition of G9a/GLP in human MDA-MB-231 cells assessed as reduction in H3K9 dimethylation at 20 uM incubated for 1 day followed by compound washout and measured after 1 to 4 days; assay type: cell-based
MDA-MB-231 [14] = test: Antiproliferative activity against human MDA-MB-231 cells after 5 days by MTT assay; assay type: functional, cell-based; settings: MDA-MB-231, 120 h
[15] = biological target: T3, Histone-lysine N-methyltransferase EHMT1/EHMT2 (Homo sapiens); test: Inhibition of G9a/GLP in human MDA-MB-231 cells assessed as reduction in H3K9 dimethylation incubated for 3 days by Western blotting analysis; assay type: cell-based; settings: dose 2.5-20 µM, time 3.0 day

| SMILES | inhibition [2] | pIC50 (4T1) | pIC50 (MDA-MB-231 [3]) | other results |
| --- | --- | --- | --- | --- |
| COc1cc2nc(N3CCCN(C)CC3)nc(NC3CCN(Cc4ccccc4)CC3)c2cc1OC | – | – | – | IC50 at 2 days [1]: 4.28 µM |
| CCC(=O)N1CC=C(c2nc(NC3CCN(C)CC3)c3cc(OC)c(OC)cc3n2)C1 | – | – | – | inhibition [4]: inactive |
| C=CC(=O)N1CCC=C(c2nc(NC3CCN(C)CC3)c3cc(OC)c(OC)cc3n2)C1 | 98% | 5.05 | 5.45 | inhibition [5]: Active |
| C=CC(=O)N1CC=C(c2nc(NC3CCN(Cc4ccccc4)CC3)c3cc(OC)c(OC)cc3n2)C1 | 38% | 5.05 | 5.80 | – |
| CCC(=O)Nc1cccc(-c2nc(NC3CCN(C)CC3)c3cc(OC)c(OC)cc3n2)c1 | – | – | – | Activity (MDA-MB-231 [6]): inactive; viability at 20 µM (MDA-MB-231 [7]): 82.7%; Activity (MDA-MB-231 [8]): 1.32%; Activity (MDA-MB-231 [9]): 8.69%; Activity (MDA-MB-231 [10]): 7.29%; inhibition [11]: Active; inhibition [4]: inactive |
| C=CC(=O)N1CCC=C(c2nc(NC3CCN(Cc4ccccc4)CC3)c3cc(OC)c(OC)cc3n2)C1 | – | 4.54 | 4.98 | – |
| COc1cc2c(NC3CCN(C(C)C)CC3)nc(N3CCC(F)(F)CC3)nc2cc1OCCCN1CCCC1 | – | – | 6.00 | inhibition (MDA-MB-231 [12]): Active; Activity (MDA-MB-231 [6]): inactive; IC50 (4T1; 4t1): 1.55 µM; IC50 at 2 days [1]: 6.99 µM; inhibition [13]: inactive; viability at 20 µM (MDA-MB-231 [7]): 7.16%; Activity (MDA-MB-231 [8]): 4.04%; Activity (MDA-MB-231 [9]): 72.11%; pIC50 (MDA-MB-231 [14]): 6.00; Activity (MDA-MB-231 [10]): 16.69%; inhibition [15]: Dose-Dependent Effect |
| CCC(=O)N1CCC=C(c2nc(NC3CCN(C)CC3)c3cc(OC)c(OC)cc3n2)C1 | – | – | – | inhibition [4]: inactive |

The next lines start with results.

| inhibition [2] | pIC50 (4T1) | pIC50 (MDA-MB-231 [3]) | SMILES | other results |
| --- | --- | --- | --- | --- |
| 60% | 4.76 | 5.68 | C=CC(=O)NC/C=C/c1nc(NC2CCN(Cc3ccccc3)CC2)c2cc(OC)c(OC)cc2n1 | – |
| 7% | 4.95 | 4.87 | C=CC(=O)N1CCC=C(c2nc(NC3CCN(C(C)C)CC3)c3cc(OC)c(OC)cc3n2)C1 | – |
| – | 4.59 | 4.74 | C=CC(=O)Nc1ccc(C)c(-c2nc(NC3CCN(C(C)C)CC3)c3cc(OC)c(OC)cc3n2)c1 | – |
| 98% | 4.98 | 6.05 | C=CC(=O)N1CC=C(c2nc(NC3CCN(C)CC3)c3cc(OC)c(OC)cc3n2)C1 | inhibition [5]: Active |
| 56% | < 4.52 | 5.65 | C=CC(=O)NC/C=C/c1nc(NC2CCN(C(C)C)CC2)c2cc(OC)c(OC)cc2n1 | – |
| 26% | 4.98 | 5.82 | C=CC(=O)Nc1cccc(-c2nc(NC3CCN(C(C)C)CC3)c3cc(OC)c(OC)cc3n2)c1 | – |
| – | < 4.52 | < 4.52 | C=CC(=O)NC/C=C/c1nc(NC2CCN(C)CC2)c2cc(OC)c(OC)cc2n1 | – |
| 24% | 4.55 | 5.90 | C=CC(=O)N1CC=C(c2nc(NC3CCN(C(C)C)CC3)c3cc(OC)c(OC)cc3n2)C1 | – |
